The supplement of paper PMC11451515

How the values were obtained:
Test in all cases: AUC of viability dose-response curve (% viability x log10 dose units); higher = less sensitive
Settings in all cases: 48 h
[1] = tested on: NOMO1
Procedure, shortened: (§1)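 Viability of medium-adapted leukemia cells was measured by CellTiter-Glo One luminescence after 48 h at 37°C with library compounds in DMSO. Doses were 11 threefold steps from 47 μM to 0.79 nM, in 1536-well plates at 500 or 1000 cells/well. Signals were normalised per plate to DMSO and cell-free wells and fitted with a four-parameter log-logistic model on log10 dose. Area under the curve was integrated by trapezoidal rule, with curves exceeding full viability scaled and failed quality-control curves removed.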

[2] = tested on: P12-Ichikawa
Procedure, shortened: as §1

[3] = tested on: SEM cells
Procedure, shortened: as §1

[4] = RPMI 5 mM glucose + 10% dialyzed FBS

Compound | AUC of viability dose-response curve ([1]; HPLM + 10% dialyzed FBS) | AUC of viability dose-response curve ([1]; RPMI 5 mM glucose + 10% FBS) | AUC of viability dose-response curve [1, 4] | AUC of viability dose-response curve ([2]; HPLM + 10% dialyzed FBS) | AUC of viability dose-response curve ([2]; RPMI 5 mM glucose + 10% FBS) | AUC of viability dose-response curve [2, 4] | AUC of viability dose-response curve ([3]; HPLM + 10% dialyzed FBS) | AUC of viability dose-response curve ([3]; RPMI 5 mM glucose + 10% FBS) | AUC of viability dose-response curve [3, 4]
C=C[C@H]1CN2CCC1C[C@@H]2C(O)c1ccnc2ccc(OC)cc12 (some centres not stated) | 462 | 467 | 463 | 473 | 470 | 467 | – | – | –
COc1ccc(C(=O)CC2(O)C(=O)Nc3c(Cl)ccc(Cl)c32)cc1 (configuration not stated) | 408 | 416 | 418 | 388 | 387 | 406 | 391 | 330 | 388
O=C(c1ccccc1)c1ccc2n1CCC2C(=O)O (configuration not stated) | 461 | 458 | 464 | 423 | 413 | 424 | 439 | 421 | 426
CC(C(=O)O)c1ccc2c(c1)CC(=O)c1ccccc1S2 (configuration not stated) | 389 | 418 | 415 | 427 | 418 | 425 | 440 | 461 | 458
CCOC(=O)C(C)OC1=CC=CC2=C1\C=C/N(CC(=O)NC3=CC=C4OCCOC4=C3)C2=O (configuration not stated) | 441 | 434 | 442 | 442 | 452 | 436 | 453 | 441 | 443
CN1\C=N/C2=CC=C(NC3=CC(=CC=C3C)NC(=O)C4=CC(=CC=C4)C(C)(C)C#N)C=C2C1=O | 376 | 377 | 355 | 421 | 395 | 422 | 424 | 431 | 433
Nc1c2c(nc3ccccc13)CCCC2 | 352 | 376 | 388 | 434 | 440 | 433 | 431 | 390 | 402
C[C@]12CC[C@H]3[C@@H](CCC4=CC(=O)CC[C@@H]43)[C@@H]1CC[C@@H]2OC(=O)CCc1ccccc1 | 463 | 469 | 466 | 469 | 474 | 470 | 415 | 416 | 443
Nc1ccc([S+](=O)([O-])Nc2ccnn2-c2ccccc2)cc1 | 446 | 467 | 451 | 470 | 455 | 464 | 444 | 452 | 440
CCCCN(CCCC)CC(O)c1cc(Cl)cc2c1-c1ccc(Cl)cc1/C2=C/c1ccc(Cl)cc1 (configuration not stated) | 456 | 449 | 461 | 446 | 472 | 448 | 463 | 438 | 434
CCCCCNC(=O)N1CCC(CN(Cc2ccc(Cl)cc2)Cc2ccc([N+](=O)[O-])s2)C1 (configuration not stated) | – | – | – | 443 | 446 | 445 | 461 | 447 | 456
O=C(O)CCNC(=O)c1ccc(/N=N/c2ccc(O)c(C(=O)O)c2)cc1 | 465 | 469 | 468 | 469 | 447 | 443 | 443 | 454 | 464
O=C(O)c1cc(/N=N/c2ccc([S+](=O)([O-])Nc3ccccn3)cc2)ccc1O | 471 | 466 | 470 | 465 | 468 | 474 | 452 | 465 | 453
CN1CC(=O)N2[C@H](c3ccc4c(c3)OCO4)c3[nH]c4ccccc4c3C[C@@H]2C1=O | 427 | 447 | 449 | 456 | 440 | 419 | 466 | 435 | 461
Cc1ccc([S+](=O)([O-])OCC(=O)Nc2ccc(C(=O)O)c(O)c2)cc1 | 469 | 460 | 448 | 446 | 469 | 465 | 458 | 438 | 455
O=C(O)c1cccnc1Nc1cccc(C(F)(F)F)c1 | 446 | 452 | 461 | 451 | 451 | 444 | 466 | 420 | 436
CCCCOCCOc1nc(-c2ccc(C(=O)O)c(F)c2)sc1C | 420 | 437 | 436 | 464 | 434 | 439 | 456 | 460 | 475
CC[C@H]1OC(=O)[C@H](C)C(=O)[C@H](C)[C@@H](O[C@H]2O[C@H](C)C[C@H](N(C)C)[C@H]2O)[C@](C)(OC)C[C@@H](C)C(=O)[C@H](C)[C@H]2N(CCCCn3cnc(-c4cccnc4)c3)C(=O)O[C@]12C | 439 | 447 | 459 | 452 | 444 | 395 | 447 | 462 | 453
CC1=CC(=CC(=C1C\C2=N\CCN2)C)C(C)(C)C | 395 | 420 | 407 | 473 | 458 | 463 | 443 | 471 | 460
C=CC(=O)Nc1cc2c(Nc3ccc(F)c(Cl)c3)ncnc2cc1OCCCN1CCOCC1 | 421 | 429 | 438 | 421 | 441 | 442 | – | – | –
OCC(O)C(O)C(O)CO (configuration not stated) | 430 | 414 | 447 | 455 | 432 | 429 | 421 | 429 | 402
COc1cc(C(=O)N2CC[C@@H](O)[C@@H](N)C2)cc2nc(-c3cc4ccccc4n3CC3CC3)n(C)c12 | 294 | 327 | 338 | 279 | 336 | 324 | 357 | 276 | 335
CNC(=O)c1ccc(Nc2cc(Nc3ccccc3[S+](=O)([O-])C(C)C)c3cc[nH]c3n2)nc1 | 422 | 407 | 414 | 367 | 355 | 377 | 319 | 345 | 323

Compound | AUC of viability dose-response curve ([1]; HPLM + 10% dialyzed FBS) | AUC of viability dose-response curve ([1]; RPMI 5 mM glucose + 10% FBS) | AUC of viability dose-response curve [1, 4] | AUC of viability dose-response curve ([2]; HPLM + 10% dialyzed FBS) | AUC of viability dose-response curve ([2]; RPMI 5 mM glucose + 10% FBS) | AUC of viability dose-response curve [2, 4] | AUC of viability dose-response curve ([3]; HPLM + 10% dialyzed FBS) | AUC of viability dose-response curve ([3]; RPMI 5 mM glucose + 10% FBS) | AUC of viability dose-response curve [3, 4]
O=C(O)C(=O)c1cn(Cc2ccccc2)c2ccc(-c3ccc(OC(F)(F)F)cc3)cc12 | 449 | 460 | 443 | 456 | 471 | 466 | 451 | 448 | 444
CCCCCCCCCCCCCC(=O)N[C@H](CO)[C@H](O)c1ccc([N+](=O)[O-])cc1 | 342 | 323 | 327 | 369 | 328 | 318 | 296 | 276 | 280
Oc1nc(-c2ccc(C(F)(F)F)cc2)nc2c1CSCC2 | 477 | 441 | 466 | 464 | 464 | 436 | 438 | 457 | 449
CC(C)c1cc(C(C)C)c(CC(=O)N[S+](=O)([O-])Oc2c(C(C)C)cccc2C(C)C)c(C(C)C)c1 | 445 | 439 | 426 | 469 | 469 | 451 | 471 | 467 | 464
NC[C@H]1O[C@H](O[C@@H]2[C@H](O)[C@@H](O[C@H]3O[C@H](CO)[C@@H](O)[C@H](N)[C@H]3O)[C@H](N)C[C@@H]2N)[C@H](O)[C@@H](O)[C@@H]1O | 455 | 452 | 458 | 445 | 466 | 461 | – | – | –
COC(=O)c1ccc2c(c1)NC(=O)/C2=C(\Nc1ccc(N(C)C(=O)CN2CCN(C)CC2)cc1)c1ccccc1 | 453 | 459 | 441 | 458 | 462 | 451 | – | – | –
CC(=O)Oc1ccccc1C(=O)Nc1ncc([N+](=O)[O-])s1 | 459 | 464 | 420 | 457 | 446 | 442 | 441 | 454 | 470
CN1CCCN(CC1)C2=CC=C3C(=O)\C(=C/4SC5=C(C=CC=C5)N4C3=N2)C(=O)NCC6=CN=C(C)C=N6 | 442 | 468 | 450 | 447 | 410 | 420 | 417 | 335 | 374
CC#CCn1c(N2CCC[C@@H](N)C2)nc2c1c(=O)n(Cc1nc(C)c3ccccc3n1)c(=O)n2C | 471 | 443 | 457 | 473 | 450 | 449 | 475 | 460 | 433
COc1cc2c(cc1OC)CN(CCc1ccc(NC(=O)c3cc(OC)c(OC)cc3NC(=O)c3cnc4ccccc4c3)cc1)CC2 | 459 | 458 | 464 | 412 | 401 | 402 | 445 | 418 | 432
COC1=CC=C(C(=C1)OC(C)C)C/2=N/[C@@H]([C@@H](N2C(=O)N3CCNC(=O)C3)C4=CC=C(Cl)C=C4)C5=CC=C(Cl)C=C5 | 409 | 439 | 434 | 404 | 427 | 413 | 279 | 250 | 253
COc1c(C)c2c(c(O)c1C/C=C(\C)CCC(=O)O)C(=O)OC2 | 421 | 425 | 428 | 426 | 392 | 404 | 436 | 414 | 445
COC1=C(OCCCN2CCOCC2)C=C3N=CC=C(OC4=CC=C(C=C4F)\C5=C\N=C(\NC6=CC=C(F)C=C6)N(C)C5=O)C3=C1 | 441 | 447 | 429 | 447 | 448 | 445 | 282 | 297 | 258
CC(C)(O)CC(=O)NCCn1ccc2ncnc(Nc3ccc(Oc4cccc(C(F)(F)F)c4)c(Cl)c3)c21 | 415 | 450 | 433 | 425 | 437 | 436 | 436 | 415 | 432
CC[C@@H]([C@H](C)O)n1ncn(-c2ccc(N3CCN(c4ccc(OCC5CO[C@@](Cn6cncn6)(c6ccc(F)cc6F)C5)cc4)CC3)cc2)c1=O (some centres not stated) | 457 | 427 | 423 | 450 | 447 | 425 | 452 | 452 | 458
C[C@@H](CN1CC(=O)NC(=O)C1)N1CC(=O)NC(=O)C1 | 273 | 296 | 301 | 278 | 317 | 303 | 233 | 206 | 198
O=C(CCCN1CCN(c2ccc(F)cc2)CC1)NC1c2ccccc2CSc2ccccc21 (configuration not stated) | 427 | 440 | 438 | 455 | 434 | 434 | 429 | 388 | 402
COc1ccc2c(c1)CN(C)CC2c1ccc(Cl)c(Cl)c1 (configuration not stated) | 430 | 463 | 437 | 475 | 471 | 461 | 465 | 467 | 443
CCc1ccc(/C=C2/SC(=S)NC2=O)cc1 | 377 | 387 | 375 | 400 | 386 | 377 | – | – | –
COC(=O)C\1=C(C)\N\C(=C(/C1C2=CC=CC3=NON=C23)C(=O)OC(C)C)C (configuration not stated) | 437 | 441 | 464 | 455 | 454 | 438 | 468 | 449 | 457
Cc1csc(-c2nnc(Nc3ccc(Oc4ncccc4-c4ccnc(N)n4)cc3)c3ccccc23)c1 | 408 | 334 | 357 | 178 | 191 | 226 | 258 | 211 | 226
Cc1cccc(Nc2ccncc2[S+](=O)([O-])NC(=O)NC(C)C)c1 | 442 | 412 | 415 | 450 | 457 | 425 | 409 | 457 | 459
